The nature of the series: feed intake of horses on sudden or gradual introduction of virginiamycin (Founderguard). Type of series: in vivo. The method, then:
The aim of the experiment was to determine if there is a depression in feed intake when horses are first given Founderguard at the recommended dose rate of 0.5 mg virginiamycin per kg body weight per day, and whether a gradual or sudden introduction of Founderguard has different effects on feed intake during the introductory period.
Five horses of mixed ages and sexes were used in the experiment. All horses were treated against intestinal parasites prior to the Control period.
Open air feeding stalls approximately 2.5 m square were prepared with ground-level hay feeders, car tyre bucket-holders for feeding grain and a water trough shared between two stalls. Horses entered the stalls around 7.00 AM each day and were let out for exercise around 5.00 PM. […]
All the oats offered were consumed. Intake of all feed was measured on an ‘as-fed’ basis. […] While not measured objectively the quality of hay used in Period 2 was considered to be of higher quality than that used in Period 1. The effect of treatment on feed intake for each horse was calculated each day as a percentage of the mean intake for that animal during the five days of ‘Control’ intake measurement. […]
Feed intake was measured for at least 5 days without Founderguard (control intake) before commencing the five day treatment period. […]

virginiamycin: the “effect on feed intake” value (gradual introduction over 4 days (25, 50, 75, 100% of complete dose)) is “does not cause a depression in feed intake”. The “feed intake compared to pretreatment levels (day 0) and to gradual introduction” value (sudden introduction of the full dose (0.5 mg/kg bodyweight per day)) is given as “significant decrease in feed intake”.

The values are drawn from patent US8173120B2, “Method of preventing reduced feed intake in animals and treatment of disease conditions” (Precision Nutrition Pty Ltd, priority 2005, dated 2012).
